Test results reported in patent publication US20250228796A1, “SKELETAL MUSCLE ENHANCER” (SATO PHARMACEUTICAL CO., LTD., priority 2022, published 2025).

Experiments:
Type in all cases: in vivo, mouse
[1] = test system: tibialis anterior muscle of muscle atrophy model; assay: Muscle atrophy model (hindlimb fixation): muscle weight and muscle fiber cross-sectional area; conditions: intramuscular
Description: (§1) Seven-week old C57BL/6 Male mice (CLEA Japan, Inc.) were purchased, and used for experiment at the age of 8 weeks.
A model animal to which muscle atrophy had been caused by a method of fixing a hindlimb (J Appl Physiol, vol. 106, pp. 2049-2059, 2009) was used.
(§2) Under the anesthesia with isoflurane, the left hindlimb of the mouse in a bent state was fixed with a surgical stapler (Kaiser Plus. KEISEI MEDICAL INDUSTRIAL CO., LTD.). The right hindlimb of the same mouse was assigned to the sham-treatment side, and no fixation treatment was performed. After 3 or 7 days of the start of fixation, the tibialis anterior muscle (one of skeletal muscles) was collected by dissection. The sample collected after 3 days was supplied to the expression analysis of the muscle atrophy-related genes, and the sample collected after 7 days was supplied to the measurement of a muscle weight and the preparation of a muscle tissue section.
(§3) Body weight of the mouse was measured before collecting the tibialis anterior muscle. Furthermore, the weight of the collected tibialis anterior muscle was measured. From these measured values, the ratio (%) of the skeletal muscle weight per body weight of the mouse (weight of tibialis anterior muscle/body weight of mouse) was calculated.
(§4) Immediately after the collection of the tibialis anterior muscle, the tibialis anterior muscle was immersed in isopentane cooled with liquid nitrogen and was rapidly frozen. The frozen muscle tissue was cut into slices each having a thickness of 10 μm by using a cryostat (Leica Biosystems), and the slice was attached onto an antistripping coated slide glass (Matsunami Glass Ind., Ltd.).
A muscle tissue section was sufficiently air dried for 30 minutes under room temperature. After that, the muscle tissue sections was fixed by immersing it in acetone cooled to −30° C. and treating at −30° C. for 20 minutes. The fixed sections was air dried once and washed with PBS. Then the section was blocked by dropwisely adding a blocking reagent (Blocking One. NACALAI TESQUE, INC.) to the section and subjected to the blocking treatment for 1 hour. Next, a primary antibody (Anti-laminin-2 (α-2 Chain) antibody Rat monoclonal (Sigma-Aldrich)) obtained by being diluted 500 times with a blocking reagent was added dropwise, and the reaction was conducted at overnight at 4° C. Since laminin to which a primary antibody binds is a protein expressed in the basement membranes of all muscle cells, the laminin was used in this experiment as an index in order to measure the area of individual muscle cells in a section. The muscle tissue section after the reaction with the primary antibody was washed with PBS, and then was reacted for 1 hour with a secondary antibody (CF 488A Goat Anti-Rat IgG (H+L) (Biotium)) obtained by being diluted 500 times with the blocking reagent. The secondary antibody that is an anti-rat antibody conjugated with a fluorescent dye binds to the primary antibody, and stains the laminin. […] Set with DAPI” (Vector), and then the fluorescence observation was performed with an inverted microscope FSX100 (Olympus).
The muscle fiber cross-sectional area was measured basis of the image data taken from the fluorescence observation. After the image data was taken into image analysis software ImageJ (NIH), the cross-sectional area of the individual cells were measured on the basis of the cell membrane stained with laminin. […]

[2] = test system: Trim63 (MuRF1) mRNA expression; assay: Expression analysis of muscle atrophy-related gene Trim63 in muscle atrophy model; conditions: 3 days
Protocol: as §2
(§5) The tibialis anterior muscle was homogenized with Sepasol-RNA I Super G (NACALAI TESQUE, INC.), 1-bromo-3-chloropropane was added thereto, the mixture was stirred, and further centrifuged, then RNA was extracted from the supernatant. The extracted RNA was recovered with 2-propanol and 75% ethanol, and then subjected to the reverse transcription reaction (using ReverTra Ace qPCR RT Master Mix (Toyobo Co., Ltd.) according to the attached protocol) to synthesize cDNA. The synthesized CDNA was subjected to the real-time PCR method (using Applied Biosystems 7500 Real-Time PCR System (Thermo Fisher Scientific)) to measure mRNA expression of three genes, Trim63 (MuRF1), myostatin (Mstn), and Gapdh. Primer sequences used are as follows.
(§6) The expression levels of mRNA of Trim63 and Mstn (mTrim63 and mMstn) were calculated as a ratio to the expression level of mRNA of Gapdh (mGapdh). […]
(§7) Spermidine trihydrochloride (SPD) was administered to muscle atrophy model animals by three administration routes, and the expression variations of muscle atrophy-related genes Trim63 and Mstn were measured. […]
(§8) The mRNA expression of Trim63 and Mstn in the tibialis anterior muscle of the left hindlimb (fixed: Staple) and the right hindlimb (sham treatment: Sham) collected after 3 days of the start of fixation was measured.

[3] = test system: myostatin (Mstn) mRNA expression; assay: Expression analysis of muscle atrophy-related gene Mstn in muscle atrophy model; conditions: 3 days
Protocol: as §2, §5, §6, §7, §8

[4] = test system: tibialis anterior muscle of muscle damage model (CTX); assay: Muscle damage model (cardiotoxin): muscle weight and regenerated muscle fiber cross-sectional area; conditions: 7 days after CTX
Protocol: as §1
A model animal to which muscle damage had been caused by administion of snake venom cardiotoxin (CTX) was used. The model animal has been widely used in studies on regeneration from muscle damage.
Under the anesthesia with isoflurane, 50 μL of 10 μM CTX was administered to the tibialis anterior muscle of the right hindlimb of the mouse. Fifty μL of a phosphate buffer (PBS) was administered as a Vehicle to the tibialis anterior muscle of left hindlimb of the same mouse. After 7 days of the administration of CTX, the tibialis anterior muscle was collected by dissection, and supplied to the measurement of muscle weight and preparation of a muscle tissue section.
as §3, §4
A muscle tissue section was sufficiently air dried for 30 minutes under room temperature. After that, the muscle tissue sections was fixed by immersing it in acetone cooled to −30° C. and treating at −30° C. for 20 minutes. The fixed sections was air dried once and washed with PBS. Then the section was blocked by dropwisely adding a blocking reagent (Blocking One. NACALAI TESQUE, INC.) to the section and subjected to the blocking treatment for 1 hour. Next, a primary antibody (Anti-laminin-2 (α-2 Chain) antibody Rat monoclonal (Sigma-Aldrich)) obtained by being diluted 500 times with a blocking reagent was added dropwise, and the reaction was conducted at overnight at 4° C. Since laminin to which a primary antibody binds is a protein expressed in the basement membranes of all muscle cells, the laminin was used in this experiment as an index in order to measure the area of individual muscle cells in a section. The muscle tissue section after the reaction with the primary antibody was washed with PBS, and then was reacted for 1 hour with a secondary antibody (CF 488A Goat Anti-Rat IgG (H+L) (Biotium)) obtained by being diluted 500 times with the blocking reagent. The secondary antibody that is an anti-rat antibody conjugated with a fluorescent dye binds to the primary antibody, and stains the laminin. The muscle tissue sections after the reaction with the secondary antibody was washed with PBS, and sealed by using “VECTASHIELD Hard. Set with DAPI” (Vector), and then the fluorescence observation was performed with an inverted microscope FSX100 (Olympus).
The muscle fiber cross-sectional area was measured basis of the image data taken from the fluorescence observation. After the image data was taken into image analysis software ImageJ (NIH), the cross-sectional area of the individual cells were measured on the basis of the cell membrane stained with laminin. For the area measurement, “Analyze Particles” that is an add-in analysis program on ImageJ was used. The measurement results were shown as a distribution chart (histogram) of the areas and number of single-muscle fibers, and as an average value of the cross-sectional areas of all the single muscle fibers (mean muscle fiber area).
In the muscle damage model (Example 3), the regenerated muscle was used as a measurement target. […]

[5] = intraperitoneal, 19.6 mM 10 mL/kg once a day

In the case of `Cl.Cl.Cl.NCCCCNCCCN` [SPD, Spermidine trihydrochloride], the “muscle weight loss due to hindlimb fixation” value ([1]; 196 mM 10 μL once a day, 7 days, **P<0.01) is reported as “significant suppression”, the “muscle weight vs Vehicle administration group” value ([1]; 196 mM 10 μL once a day, left hindlimb (fixed: Staple), 7 days after start of fixation) is reported as “significant increase” and the “muscle weight vs Vehicle administration group” value ([1]; 196 mM 10 μL once a day, right hindlimb (sham treatment: Sham), 7 days after start of fixation) is reported as “significant increase”. For the same compound, the “mean muscle fiber area vs Vehicle” value ([1]; 7 days after start of fixation, ***P<0.001) was “significant increase”, the “histogram of single-muscle fiber area vs Vehicle” value ([1]; 7 days after start of fixation, whole muscle) was “shifted to the right side” and the “Trim63 expression suppression (reduction vs Staple, Vehicle)” value ([2]; intramuscular, 196 mM 10 μL once a day, fixed left hindlimb (Staple), *P<0.05) was 65.6%. The “Trim63 expression suppression (reduction vs Staple, Vehicle)” value ([2]; intraperitoneal, 19.6 mM 10 mL/kg once a day, Staple) was 42.3%, the Trim63 expression suppression ([2]; oral, 30 mM in drinking water) was “no expression suppression” and the “Mstn expression suppression (reduction vs Staple, Vehicle)” value ([3]; intramuscular, 196 mM 10 μL once a day, Staple, **P<0.01) was 61.1%. For the same compound, the Mstn expression suppression [3, 5] was “did not show significant expression suppression”, the Mstn expression suppression ([3]; oral, 30 mM in drinking water) was “did not show significant expression suppression” and the “suppression of muscle weight loss by CTX” value ([4]; intramuscular, 196 mM 10 μL once a day) was “remarkable suppression”. The “histogram of regenerated single-muscle fiber area vs Vehicle” value ([4]; intramuscular) was “shifted to the right side”, the “mean muscle fiber area (regenerated muscle) vs Vehicle” value ([4]; intramuscular, ***P<0.001) was “significant increase” and the “suppression of muscle weight loss by CTX” value [4, 5] was “a significant suppression was not observed”. The “histogram of regenerated single-muscle fiber area vs Vehicle” value ([4]; intraperitoneal) was “no shift”, the “mean muscle fiber area (regenerated muscle) vs Vehicle” value ([4]; intraperitoneal) was “no significant increase” and the “suppression of muscle weight loss by CTX” value ([4]; oral, 30 mM in drinking water) was “a significant suppression was not observed”. The “histogram of regenerated single-muscle fiber area vs Vehicle” value ([4]; oral) was “no shift” and the “mean muscle fiber area (regenerated muscle) vs Vehicle” value ([4]; oral) was “no significant increase”.
